From patent US9717728B2, “Pharmaceutical combination comprising a B-Raf inhibitor and a histone deacetylase inhibitor and their use in the treatment of proliferative diseases” (NOVARTIS AG, priority 2012, dated 2017)
Entries after “also recorded” stand apart in the source; their conditions may differ.

Experiments:
Mel-P3-Post [1] = experiment: JC1 staining for mitochondrial depolarisation; assay type: cell-based, human
Source text: (§1) Cell lines: Mel-PX-Pre and Mel-PX-post represent cell lines derived from patient-X pre- and post-treatment with vemurafenib.

Mel-P3-Post [2] = experiment: Annexin-V staining per quadrant (flow cytometry); assay type: cell-based, human; settings: 48 hours
Source text: as §1

Mel-P3-Pre [3] = experiment: Annexin-V staining per quadrant (flow cytometry); assay type: cell-based, human; settings: 48 hours
Source text: as §1

Mel-P3-Post [4] = experiment: z-VAD-fmk-FITC staining for caspase positive cells; assay type: cell-based, human; settings: 48 hours
Source text: as §1

Mel-P4-Pre = experiment: Sub-G1 analysis of dead cells; assay type: cell-based, human; settings: 48 hours
Source text: as §1

Mel-P1-Pre = experiment: Sub-G1 analysis of dead cells; assay type: cell-based, human; settings: 48 hours
Source text: as §1

Mel-P4-Post = experiment: Sub-G1 analysis of dead cells; assay type: cell-based, human; settings: 48 hours
Source text: as §1

Mel-P1-Post = experiment: Sub-G1 analysis of dead cells; assay type: cell-based, human; settings: 48 hours
Source text: as §1

Melanocytes (NHEM) = experiment: Cell cycle staining and sub-G1 analysis of dead cells (flow cytometry); assay type: cell-based; settings: for CELL CYCLE AVG G1 / CELL CYCLE AVG G2/M / CELL CYCLE AVG S / sub-G1 %: Melanocytes (NHEM), 48 hours
Mel-P3-Post [5] = experiment: as above; assay type: cell-based, human; settings: for CELL CYCLE AVG G1 / CELL CYCLE AVG G2/M / CELL CYCLE AVG S / sub-G1 %: Mel-P3-Post, 48 hours
Source text: as §1

Mel-P3-Pre [6] = experiment: as above; assay type: cell-based, human; settings: for CELL CYCLE AVG G1 / CELL CYCLE AVG G2/M / CELL CYCLE AVG S / sub-G1 %: Mel-P3-Pre, 48 hours
Source text: as §1

melanoma lines = experiment: Cell cycle arrest and apoptosis in matched pre and post melanoma cell lines; assay type: cell-based, human; settings: B-Raf-mutant melanoma, listed as B-Raf inhibitor of Formula (I)
Method: The B-Raf inhibitor of Formula (I) was tested on the matched pre and post cell lines established from patients before treatment and after progression on vemurafenib treatment. […] Combining panobinostat with the B-Raf inhibitor of Formula (I), caused a synergistic increase in apoptosis in melanoma lines. The increase in apoptosis was also observed in the “post” cell lines which had previously acquired resistance to the B-Raf inhibitor, vemurafenib.

Structure (SMILES): Cc1[nH]c2ccccc2c1CCNCc1ccc(/C=C/C(=O)NO)cc1 [HDAI, reference compound]
- Depolarised mitochondria (Mel-P3-Post [1]; B-Raf 0 uM, HDAI 30, 48 hours): 86
- Annexin Staining per quadrant. Lower Left* (“healthy” cells) (Mel-P3-Post [2]; B-Raf 0 uM, HDAI 30 nM): 83
- Annexin Staining per quadrant. Lower Right (Mel-P3-Post [2]; B-Raf 0 uM, HDAI 30 nM): 9
- Annexin Staining per quadrant. Upper Left (Mel-P3-Post [2]; B-Raf 0 uM, HDAI 30 nM): 0
- Annexin Staining per quadrant. Upper Right (Mel-P3-Post [2]; B-Raf 0 uM, HDAI 30 nM): 8
- Annexin Staining per quadrant. Lower Left* (“healthy” cells) (Mel-P3-Pre [3]; B-Raf 0 uM, HDAI 30 nM): 85
- Annexin Staining per quadrant. Lower Right (Mel-P3-Pre [3]; B-Raf 0 uM, HDAI 30 nM): 8
- Annexin Staining per quadrant. Upper Left (Mel-P3-Pre [3]; B-Raf 0 uM, HDAI 30 nM): 1
- Annexin Staining per quadrant. Upper Right (Mel-P3-Pre [3]; B-Raf 0 uM, HDAI 30 nM): 6
- z-VAD-fmk positive (Mel-P3-Post [4]; B-Raf 0 uM, HDAI 30 nM): 23
- sub-G1 % (Mel-P4-Pre; B-Raf 0 uM, HDAI 30 nM): 40%
- sub-G1 % (Mel-P1-Pre; B-Raf 0 uM, HDAI 30 nM): 21%
- sub-G1 % (Mel-P4-Post; B-Raf 0 uM, HDAI 30 nM): 24%
- sub-G1 % (Mel-P1-Post; B-Raf 0 uM, HDAI 30 nM): 14%
- cell death of melanocytes (in words) (Melanocytes (NHEM)): did not die
- CELL CYCLE AVG G1 (Melanocytes (NHEM); B-Raf 0 uM, HDAI 30 nM): 88
- CELL CYCLE AVG G2/M (Melanocytes (NHEM); B-Raf 0 uM, HDAI 30 nM): 7
- CELL CYCLE AVG S (Melanocytes (NHEM); B-Raf 0 uM, HDAI 30 nM): 5
- sub-G1 % (Melanocytes (NHEM); B-Raf 0 uM, HDAI 30 nM): 1%
- CELL CYCLE AVG G1 (Mel-P3-Post [5]; B-Raf 0 uM, HDAI 30 nM): 69
- CELL CYCLE AVG G2/M (Mel-P3-Post [5]; B-Raf 0 uM, HDAI 30 nM): 22
- CELL CYCLE AVG S (Mel-P3-Post [5]; B-Raf 0 uM, HDAI 30 nM): 9
- sub-G1 % (Mel-P3-Post [5]; B-Raf 0 uM, HDAI 30 nM): 15%
- CELL CYCLE AVG G1 (Mel-P3-Pre [6]; B-Raf 0 uM, HDAI 30 nM): 70
- CELL CYCLE AVG G2/M (Mel-P3-Pre [6]; B-Raf 0 uM, HDAI 30 nM): 21
- CELL CYCLE AVG S (Mel-P3-Pre [6]; B-Raf 0 uM, HDAI 30 nM): 9
- sub-G1 % (Mel-P3-Pre [6]; B-Raf 0 uM, HDAI 30 nM): 17%

Structure (SMILES): COC(=O)N[C@@H](C)CNc1nccc(-c2cn(C(C)C)nc2-c2cc(Cl)cc(NS(C)(=O)=O)c2F)n1 [B-Raf]
- cell cycle arrest and apoptosis (in words) (melanoma lines): potent cell cycle inhibition and cell line-dependent apoptosis; also recorded: potent G1 arrest and cell-line dependent apoptosis
- Depolarised mitochondria (Mel-P3-Post [1]; B-Raf 5 uM, HDAI 0, 48 hours): 88
- Annexin Staining per quadrant. Lower Left* (“healthy” cells) (Mel-P3-Post [2]; B-Raf 0.1 uM, HDAI 0 nM): 91
- Annexin Staining per quadrant. Lower Right (Mel-P3-Post [2]; B-Raf 0.1 uM, HDAI 0 nM): 5
- Annexin Staining per quadrant. Upper Left (Mel-P3-Post [2]; B-Raf 0.1 uM, HDAI 0 nM): 0
- Annexin Staining per quadrant. Upper Right (Mel-P3-Post [2]; B-Raf 0.1 uM, HDAI 0 nM): 4
- Annexin Staining per quadrant. Lower Left* (“healthy” cells) (Mel-P3-Post [2]; B-Raf 1 uM, HDAI 0 nM): 91
- Annexin Staining per quadrant. Lower Right (Mel-P3-Post [2]; B-Raf 1 uM, HDAI 0 nM): 5
- Annexin Staining per quadrant. Upper Left (Mel-P3-Post [2]; B-Raf 1 uM, HDAI 0 nM): 0
- Annexin Staining per quadrant. Upper Right (Mel-P3-Post [2]; B-Raf 1 uM, HDAI 0 nM): 4
- Annexin Staining per quadrant. Lower Left* (“healthy” cells) (Mel-P3-Post [2]; B-Raf 10 uM, HDAI 0 nM): 89
- Annexin Staining per quadrant. Lower Right (Mel-P3-Post [2]; B-Raf 10 uM, HDAI 0 nM): 5
- Annexin Staining per quadrant. Upper Left (Mel-P3-Post [2]; B-Raf 10 uM, HDAI 0 nM): 0
- Annexin Staining per quadrant. Upper Right (Mel-P3-Post [2]; B-Raf 10 uM, HDAI 0 nM): 6
- Annexin Staining per quadrant. Lower Left* (“healthy” cells) (Mel-P3-Pre [3]; B-Raf 0.1 uM, HDAI 0 nM): 88
- Annexin Staining per quadrant. Lower Right (Mel-P3-Pre [3]; B-Raf 0.1 uM, HDAI 0 nM): 7
- Annexin Staining per quadrant. Upper Left (Mel-P3-Pre [3]; B-Raf 0.1 uM, HDAI 0 nM): 0
- Annexin Staining per quadrant. Upper Right (Mel-P3-Pre [3]; B-Raf 0.1 uM, HDAI 0 nM): 4
- Annexin Staining per quadrant. Lower Left* (“healthy” cells) (Mel-P3-Pre [3]; B-Raf 1 uM, HDAI 0 nM): 85
- Annexin Staining per quadrant. Lower Right (Mel-P3-Pre [3]; B-Raf 1 uM, HDAI 0 nM): 8
- Annexin Staining per quadrant. Upper Left (Mel-P3-Pre [3]; B-Raf 1 uM, HDAI 0 nM): 0
- Annexin Staining per quadrant. Upper Right (Mel-P3-Pre [3]; B-Raf 1 uM, HDAI 0 nM): 6
- Annexin Staining per quadrant. Lower Left* (“healthy” cells) (Mel-P3-Pre [3]; B-Raf 10 uM, HDAI 0 nM): 73
- Annexin Staining per quadrant. Lower Right (Mel-P3-Pre [3]; B-Raf 10 uM, HDAI 0 nM): 13
- Annexin Staining per quadrant. Upper Left (Mel-P3-Pre [3]; B-Raf 10 uM, HDAI 0 nM): 1
- Annexin Staining per quadrant. Upper Right (Mel-P3-Pre [3]; B-Raf 10 uM, HDAI 0 nM): 13
- z-VAD-fmk positive (Mel-P3-Post [4]; B-Raf 5 uM, HDAI 0 nM): 14
- sub-G1 % (Mel-P4-Pre; B-Raf 10 uM, HDAI 0 nM): 58%
- sub-G1 % (Mel-P1-Pre; B-Raf 10 uM, HDAI 0 nM): 10%
- sub-G1 % (Mel-P4-Post; B-Raf 10 uM, HDAI 0 nM): 54%
- sub-G1 % (Mel-P1-Post; B-Raf 10 uM, HDAI 0 nM): 10%
- cell death of melanocytes (in words) (Melanocytes (NHEM)): did not die
- CELL CYCLE AVG G1 (Melanocytes (NHEM); B-Raf 10 uM, HDAI 0 nM): 98
- CELL CYCLE AVG G2/M (Melanocytes (NHEM); B-Raf 10 uM, HDAI 0 nM): 1
- CELL CYCLE AVG S (Melanocytes (NHEM); B-Raf 10 uM, HDAI 0 nM): 1
- sub-G1 % (Melanocytes (NHEM); B-Raf 10 uM, HDAI 0 nM): 3%
- CELL CYCLE AVG G1 (Mel-P3-Post [5]; B-Raf 0.1 uM, HDAI 0 nM): 65
- CELL CYCLE AVG G2/M (Mel-P3-Post [5]; B-Raf 0.1 uM, HDAI 0 nM): 12
- CELL CYCLE AVG S (Mel-P3-Post [5]; B-Raf 0.1 uM, HDAI 0 nM): 23
- sub-G1 % (Mel-P3-Post [5]; B-Raf 0.1 uM, HDAI 0 nM): 2%
- CELL CYCLE AVG G1 (Mel-P3-Post [5]; B-Raf 1 uM, HDAI 0 nM): 68
- CELL CYCLE AVG G2/M (Mel-P3-Post [5]; B-Raf 1 uM, HDAI 0 nM): 10
- CELL CYCLE AVG S (Mel-P3-Post [5]; B-Raf 1 uM, HDAI 0 nM): 22
- sub-G1 % (Mel-P3-Post [5]; B-Raf 1 uM, HDAI 0 nM): 2%
- CELL CYCLE AVG G1 (Mel-P3-Post [5]; B-Raf 10 uM, HDAI 0 nM): 72
- CELL CYCLE AVG G2/M (Mel-P3-Post [5]; B-Raf 10 uM, HDAI 0 nM): 7
- CELL CYCLE AVG S (Mel-P3-Post [5]; B-Raf 10 uM, HDAI 0 nM): 21
- sub-G1 % (Mel-P3-Post [5]; B-Raf 10 uM, HDAI 0 nM): 4%
- G1 arrest (in words) (Mel-P3-Post [5]; Mel-P3 “post” cell line): weaker G1 arrest
- apoptosis (in words) (Mel-P3-Post [5]; Mel-P3 “post” cell line): no apoptosis
- CELL CYCLE AVG G1 (Mel-P3-Pre [6]; B-Raf 0.1 uM, HDAI 0 nM): 85
- CELL CYCLE AVG G2/M (Mel-P3-Pre [6]; B-Raf 0.1 uM, HDAI 0 nM): 6
- CELL CYCLE AVG S (Mel-P3-Pre [6]; B-Raf 0.1 uM, HDAI 0 nM): 10
- sub-G1 % (Mel-P3-Pre [6]; B-Raf 0.1 uM, HDAI 0 nM): 10%
- CELL CYCLE AVG G1 (Mel-P3-Pre [6]; B-Raf 1 uM, HDAI 0 nM): 90
- CELL CYCLE AVG G2/M (Mel-P3-Pre [6]; B-Raf 1 uM, HDAI 0 nM): 6
- CELL CYCLE AVG S (Mel-P3-Pre [6]; B-Raf 1 uM, HDAI 0 nM): 5
- sub-G1 % (Mel-P3-Pre [6]; B-Raf 1 uM, HDAI 0 nM): 12%
- CELL CYCLE AVG G1 (Mel-P3-Pre [6]; B-Raf 10 uM, HDAI 0 nM): 92
- CELL CYCLE AVG G2/M (Mel-P3-Pre [6]; B-Raf 10 uM, HDAI 0 nM): 4
- CELL CYCLE AVG S (Mel-P3-Pre [6]; B-Raf 10 uM, HDAI 0 nM): 4
- sub-G1 % (Mel-P3-Pre [6]; B-Raf 10 uM, HDAI 0 nM): 20%
- G1 arrest (in words) (Mel-P3-Pre [6]; Mel-P3 “pre” cell line): potent G1 arrest
- apoptosis (in words) (Mel-P3-Pre [6]; Mel-P3 “pre” cell line): low level apoptosis
